Active and inactive are the calls of the source.

In series [1] the test system is Rattus norvegicus. The series is described as follows: Anticonvulsant activity in ip dosed Sprague-Dawley rat hippocampal kindling model assessed as suppression of seizure activity treated 15 for mins post suprathreshold-stimulation. Type of series: functional, organism-based. As to conditions: Hippocampus.
Series [2] has as its system Rattus norvegicus. The series is described as follows: Anticonvulsant activity in Sprague-Dawley rat hippocampal kindling model assessed as complete absence of seizure activity at >300 mg/kg, ip treated 15 for mins post suprathreshold-stimulation. Type of series: functional, organism-based. To be noted: Hippocampus.
Series [3] relates to Mus musculus. The series is described as follows: Anticonvulsant activity in CD-1 mouse assessed as protection against maximal electroshock-induced tonic extension of hind limbs at 300 mg/kg, po after 2 hrs. Also noted: dose 300 mg/kg. As to conditions: Hindlimb. Type of series: functional, organism-based.
The subject of series [4] is Mus musculus. Briefly: Anticonvulsant activity in CD-1 mouse assessed as protection against maximal electroshock-induced tonic extension of hind limbs at 300 mg/kg, po after 0.5 hrs. To be noted: Hindlimb. Also noted: dose 300 mg/kg. Type of series: functional, organism-based. On the technique in general: The maximal electroshock test induces tonic seizures with an electrical stimulus.

For series [5], the species on record is Mus musculus.
Description: Anticonvulsant activity in po dosed CF-1 mouse assessed as protection against maximal electroshock-induced tonic extension of hind limbs measured at 1 hr
The species named for series [6] is Mus musculus. The series is described as follows: animal or person. As to conditions: CF-1, Hindlimb, po, 2 h.
Description: Anticonvulsant activity in po dosed CF-1 mouse assessed as protection against maximal electroshock-induced tonic extension of hind limbs measured at 2 hrs
Series [7] concerns Mus musculus. Briefly: Neurotoxicity in CF-1 mouse at 250 mg/kg, po by rotarod test. Type of series: toxicity, organism-based. Also noted: dose 250 mg/kg, route oral. As to conditions: in vivo. (Falling from the rotarod earlier than controls is read as motor impairment.)
Series [8] deals with Mus musculus. Briefly: Anticonvulsant activity in CD-1 mouse assessed as protection against maximal electroshock-induced tonic extension of hind limbs at 300 mg/kg, ip after 0.5 hrs. Type of series: functional, organism-based. Also noted: dose 300 mg/kg. As to conditions: Hindlimb.
Series [9] has as its system Mus musculus. The series is described as follows: Anticonvulsant activity in CD-1 mouse assessed as protection against maximal electroshock-induced tonic extension of hind limbs at 100 mg/kg, po after 2 hrs. Type of series: functional, organism-based. Also noted: dose 100 mg/kg. To be noted: Hindlimb.
The subject of series [10] is Mus musculus. The series is described as follows: Anticonvulsant activity in CD-1 mouse assessed as protection against maximal electroshock-induced tonic extension of hind limbs at 100 mg/kg, po after 0.5 hrs. Type of series: functional, organism-based. Set-up: dose 100 mg/kg. As to conditions: Hindlimb.
For series [11], the system named is Rattus norvegicus. The series is described as follows: Anticonvulsant activity in Sprague-Dawley rat hippocampal kindling model assessed as reduction in global seizures at >26 mg/kg, ip treated 15 for mins post suprathreshold-stimulation. Type of series: functional, organism-based. As to conditions: Hippocampus.

On to `CCCC(CCC)C(=O)O`, for which the outcome in [1] and in [2] was Active.
As for `NS(=O)(=O)NC[C@H]1COc2cc(Br)ccc2O1`, the result in [3] was Active. Moreover, the outcome in [4] was inactive.
Take `CC1(C)O[C@@H]2[C@@H](CO[C@@]3(COS(N)(=O)=O)OC(C)(C)O[C@@H]23)O1` [TOPIRAMATE]: the result in [1] was inactive. In series [5], this compound displayed an ED50 of 43.8 mg/kg.
As to `O=C1NC(=O)C(c2ccccc2)(c2ccccc2)N1` [PHENYTOIN], in series [6], the 50% effective dose (ED50) was determined as 9 mg/kg. Further, in series [1], the outcome was Active.
With `Cc1ccc2c(c1)O[C@@H](CNS(N)(=O)=O)CO2`, the result in series [3] and in series [4] was inactive.
Regarding `NS(=O)(=O)NC[C@H]1COc2ccccc2O1`, the Activity result in series [7] is recorded as “Non-toxic”. For the same compound, the result in series [8] was Active.
With `NS(=O)(=O)NCCC1COc2ccccc2O1` (configuration not stated), the outcome in [9], in [10] and in series [3] was inactive. Moreover, in series [4], the result was Active.
With `NS(=O)(=O)NC[C@H]1COc2c(F)cccc2O1`, the result in [9] was inactive. Further, the result in series [3] was Active.
For the compound `NS(=O)(=O)NCC1CCc2ccccc2O1` (configuration not stated), in series [9], the result was inactive. The result in [4] was Active.
As for `NS(=O)(=O)NCC1Oc2ccccc2O1`, the result in series [9] was inactive. Moreover, the outcome in [10] and in series [8] was Active.
On to `NC(=O)N1c2ccccc2C=Cc2ccccc21`, for which the result in [1] and in series [11] was Active.
As to `NS(=O)(=O)NC[C@H]1COc2cc(Cl)c(Cl)cc2O1`, the outcome in series [10] was inactive.
With `CN(CC1COc2ccccc2O1)S(N)(=O)=O` (racemic), the outcome in [4] was Active.

In general, ED50 refers to the dose that gives a 50% effect, or the effect in half of the subjects.
